# Measured values taken from patent publication US20030099632A1, “Method for preparing a purified matrix metalloproteinase” (priority 2001, published 2003).
# Biological target: T1, MMP-13CD (Homo sapiens, UniProt P45452)
# T1 construct: expression of MMP-13 catalytic domain (“MMP-13CD”) in E. coli typically produces a pro form of the enzyme; A-S- dipeptide left from the M-A-S- expression leader (mPro-MMP-13CD); removed by autolysis (N, cleaved yes); made in house
# Assay: Autolysis of mPro-MMP-13CD / MMP-13CD after addition of a zinc ligand, followed by MALDI-MS
# Format: biochemical
# Conditions: added to modified pro form A-S-MMP-13CD
# Method: A 1 mL aliquot of the solution obtained in Preparation 3 was thawed and purified by addition of 100 μL of hydroxamic acid to give a solution of purified MMP-13CD, and the solution was stored at 4° C.
# Matrix-Assisted Laser Desorption/Ionization Mass Spectrometry (“MALDI”): MALDI mass spectra were acquired on a Bruker Daltonics, Inc (Billerika, Mass.) Reflex-III time-of-flight mass spectrometer operating in linear mode. The instrument has a 3.3-meter flight tube and an adjustable accelerating voltage up to 23 kV in Delayed Extraction mode. Radiation from a Laser Science, Inc. (Newton, Mass.) nitrogen laser (337 nm, 3-nanosecond pulse width) was used to desorb ions from the target. All linear delayed-extraction experiments were performed using an operating voltage of 23.0 kV, an extraction grid voltage of 20.0 kV, a focus voltage of 16.8 kV, and a lens voltage of 9.001 kV. Twenty-five to one hundred-fifty laser shots were averaged for each spectrum with a 5-point Savitsky-Golay smooth applied. […]
# Samples of protein were then analyzed by MALDI-MS every day for 5 days. […] The flash-frozen material was stored, then thawed and immediately analyzed. […] The relative peak heights were calculated by dividing the a.i. value for MMP-13CD at m/z 18923 by the a.i. value for the particular impurity. […]
smiles,measurement,value
CC(=O)NO [acetohydroxamic acid],effect on autolysis of MMP-13CD,stabilizes the resulting mature MMP-13CD itself against autolysis
